Converted amounts (≈) assume the structure as drawn.
Legend:
Format in all cases: functional
[1] = test system: Staphylococcus aureus; assay: Antimicrobial activity against methicillin-resistant Staphylococcus aureus Chaoyang clinical isolate after 16 hrs by broth microdilution method
[2] = test system: Staphylococcus aureus; assay: Antimicrobial activity against Staphylococcus aureus ATCC 6538 after 16 hrs by broth microdilution method; settings: ATCC 6538, 16 h
[3] = test system: Bacillus spizizenii; assay: Antimicrobial activity against Bacillus subtilis ATCC 6633 after 16 hrs by broth microdilution method; settings: ATCC 6633, 16 h
[4] = test system: Enterococcus faecalis; assay: Antimicrobial activity against vancomycin-susceptible Enterococcus faecalis after 16 hrs by broth microdilution method
[5] = test system: Enterococcus faecalis; assay: Antimicrobial activity against Enterococcus faecalis VRE-309 after 16 hrs by broth microdilution method; settings: VRE-309, 16 h
[6] = test system: Pseudomonas aeruginosa; assay: Antimicrobial activity against Pseudomonas aeruginosa PAO1 after 16 hrs by broth microdilution method; settings: PAO1, 16 h
[7] = test system: Klebsiella pneumoniae; assay: Antimicrobial activity against Klebsiella pneumoniae KP-249 clinical isolate after 16 hrs by broth microdilution method; settings: KP-249, 16 h
[8] = test system: Staphylococcus aureus; assay: Antimicrobial activity against methicillin-resistant Staphylococcus aureus 309-4 clinical isolate after 16 hrs by broth microdilution method; settings: 309-4, 16 h
[9] = test system: Staphylococcus aureus; assay: Antimicrobial activity against methicillin-resistant Staphylococcus aureus 6281 clinical isolate after 16 hrs by broth microdilution method; settings: Staphylococcus aureus, 6281, 16 h
[10] = test system: Staphylococcus aureus; assay: Antimicrobial activity against methicillin-resistant Staphylococcus aureus 309-8 clinical isolate after 16 hrs by broth microdilution method; settings: 309-8, 16 h
[11] = test system: Staphylococcus aureus; assay: Antimicrobial activity against methicillin-resistant Staphylococcus aureus 6-42 clinical isolate after 16 hrs by broth microdilution method; settings: 6-42, 16 h
[12] = test system: Staphylococcus aureus; assay: Antimicrobial activity against methicillin-resistant Staphylococcus aureus 8-21 clinical isolate after 16 hrs by broth microdilution method; settings: 8-21, 16 h
[13] = test system: Staphylococcus aureus; assay: Antimicrobial activity against methicillin-resistant Staphylococcus aureus 309-3 clinical isolate after 16 hrs by broth microdilution method; settings: 309-3, 16 h
[14] = test system: Staphylococcus aureus; assay: Antimicrobial activity against methicillin-resistant Staphylococcus aureus 309-1 clinical isolate after 16 hrs by broth microdilution method; settings: 309-1, 16 h
[15] = test system: Staphylococcus aureus; assay: Antimicrobial activity against methicillin-resistant Staphylococcus aureus 309-7 clinical isolate after 16 hrs by broth microdilution method; settings: 309-7, 16 h
[16] = test system: Staphylococcus aureus; assay: Antimicrobial activity against methicillin-resistant Staphylococcus aureus 8-24 clinical isolate after 16 hrs by broth microdilution method; settings: 8-24, 16 h
[17] = test system: Staphylococcus aureus; assay: Antimicrobial activity against methicillin-resistant Staphylococcus aureus 309-6 clinical isolate after 16 hrs by broth microdilution method; settings: 309-6, 16 h

| Structure (SMILES) | MIC [1] | MIC [2] | MIC [3] | MIC [4] | MIC [5] | MIC [6] | MIC [7] | MIC [8] | MIC [9] | MIC [10] | MIC [11] | MIC [12] | MIC [13] | MIC [14] | MIC [15] | MIC [16] | MIC [17] |
| --- | --- | --- | --- | --- | --- | --- | --- | --- | --- | --- | --- | --- | --- | --- | --- | --- | --- |
| COc1ccccc1NC(=S)N/N=C1\C(=O)Nc2c(Br)cccc21 | 25 µg/mL (≈ 61.7 µM) | > 100 µg/mL | 25 µg/mL (≈ 61.7 µM) | > 100 µg/mL | > 100 µg/mL | > 100 µg/mL | > 100 µg/mL | > 100 µg/mL | > 100 µg/mL | > 100 µg/mL | > 100 µg/mL | > 100 µg/mL | > 100 µg/mL | > 100 µg/mL | > 100 µg/mL | > 100 µg/mL | > 100 µg/mL |
| Cc1ccc(NC(=S)N/N=C2\C(=O)Nc3c(Cl)cccc32)cc1 | 0.39 µg/mL (≈ 1.13 µM) | 1.56 µg/mL (≈ 4.52 µM) | ≤ 0.78 µg/mL | 6.25 µg/mL (≈ 18.1 µM) | 3.12 µg/mL (≈ 9.05 µM) | > 100 µg/mL | > 100 µg/mL | 0.78 µg/mL (≈ 2.26 µM) | 1.56 µg/mL (≈ 4.52 µM) | 0.78 µg/mL (≈ 2.26 µM) | 0.78 µg/mL (≈ 2.26 µM) | 0.78 µg/mL (≈ 2.26 µM) | 0.78 µg/mL (≈ 2.26 µM) | 0.78 µg/mL (≈ 2.26 µM) | 0.78 µg/mL (≈ 2.26 µM) | 1.56 µg/mL (≈ 4.52 µM) | 1.56 µg/mL (≈ 4.52 µM) |
| COc1ccc(NC(=S)N/N=C2\C(=O)Nc3c(F)cccc32)cc1 | 1.56 µg/mL (≈ 4.53 µM) | 3.12 µg/mL (≈ 9.06 µM) | 1.56 µg/mL (≈ 4.53 µM) | > 100 µg/mL | > 100 µg/mL | > 100 µg/mL | > 100 µg/mL | 3.12 µg/mL (≈ 9.06 µM) | 6.25 µg/mL (≈ 18.1 µM) | 3.12 µg/mL (≈ 9.06 µM) | 3.12 µg/mL (≈ 9.06 µM) | 3.12 µg/mL (≈ 9.06 µM) | 3.12 µg/mL (≈ 9.06 µM) | 3.12 µg/mL (≈ 9.06 µM) | 1.56 µg/mL (≈ 4.53 µM) | 3.12 µg/mL (≈ 9.06 µM) | 3.12 µg/mL (≈ 9.06 µM) |
| Cc1ccccc1NC(=S)N/N=C1\C(=O)Nc2c(Cl)cccc21 | 0.78 µg/mL (≈ 2.26 µM) | 1.56 µg/mL (≈ 4.52 µM) | ≤ 0.78 µg/mL | 6.25 µg/mL (≈ 18.1 µM) | 3.12 µg/mL (≈ 9.05 µM) | > 100 µg/mL | > 100 µg/mL | 1.56 µg/mL (≈ 4.52 µM) | 1.56 µg/mL (≈ 4.52 µM) | 1.56 µg/mL (≈ 4.52 µM) | 0.78 µg/mL (≈ 2.26 µM) | 0.78 µg/mL (≈ 2.26 µM) | 1.56 µg/mL (≈ 4.52 µM) | 1.56 µg/mL (≈ 4.52 µM) | 0.78 µg/mL (≈ 2.26 µM) | 1.56 µg/mL (≈ 4.52 µM) | 1.56 µg/mL (≈ 4.52 µM) |
| O=C1Nc2c(Br)cccc2/C1=N/NC(=S)Nc1cccc(Cl)c1 | 0.39 µg/mL (≈ 0.952 µM) | 1.56 µg/mL (≈ 3.81 µM) | ≤ 0.78 µg/mL | 3.12 µg/mL (≈ 7.62 µM) | 1.56 µg/mL (≈ 3.81 µM) | > 100 µg/mL | > 100 µg/mL | 0.78 µg/mL (≈ 1.9 µM) | 1.56 µg/mL (≈ 3.81 µM) | 1.56 µg/mL (≈ 3.81 µM) | 0.78 µg/mL (≈ 1.9 µM) | 1.56 µg/mL (≈ 3.81 µM) | 1.56 µg/mL (≈ 3.81 µM) | 1.56 µg/mL (≈ 3.81 µM) | 0.78 µg/mL (≈ 1.9 µM) | 1.56 µg/mL (≈ 3.81 µM) | 1.56 µg/mL (≈ 3.81 µM) |
| COc1cccc(NC(=S)N/N=C2\C(=O)Nc3c(Br)cccc32)c1 | 0.78 µg/mL (≈ 1.92 µM) | 6.25 µg/mL (≈ 15.4 µM) | ≤ 0.78 µg/mL | > 100 µg/mL | > 100 µg/mL | > 100 µg/mL | > 100 µg/mL | 1.56 µg/mL (≈ 3.85 µM) | 6.25 µg/mL (≈ 15.4 µM) | 3.12 µg/mL (≈ 7.7 µM) | 1.56 µg/mL (≈ 3.85 µM) | 1.56 µg/mL (≈ 3.85 µM) | 3.12 µg/mL (≈ 7.7 µM) | 1.56 µg/mL (≈ 3.85 µM) | 0.78 µg/mL (≈ 1.92 µM) | 1.56 µg/mL (≈ 3.85 µM) | 6.25 µg/mL (≈ 15.4 µM) |
| Cc1ccccc1NC(=S)N/N=C1\C(=O)Nc2c(Br)cccc21 | 0.78 µg/mL (≈ 2 µM) | 1.56 µg/mL (≈ 4.01 µM) | ≤ 0.78 µg/mL | 12.5 µg/mL (≈ 32.1 µM) | 6.25 µg/mL (≈ 16.1 µM) | > 100 µg/mL | > 100 µg/mL | 1.56 µg/mL (≈ 4.01 µM) | 3.12 µg/mL (≈ 8.01 µM) | 1.56 µg/mL (≈ 4.01 µM) | 0.78 µg/mL (≈ 2 µM) | 1.56 µg/mL (≈ 4.01 µM) | 1.56 µg/mL (≈ 4.01 µM) | 1.56 µg/mL (≈ 4.01 µM) | 0.78 µg/mL (≈ 2 µM) | 1.56 µg/mL (≈ 4.01 µM) | 1.56 µg/mL (≈ 4.01 µM) |
| O=C1Nc2c(I)cccc2/C1=N/NC(=S)Nc1ccc(F)cc1 | 0.78 µg/mL (≈ 1.77 µM) | 1.56 µg/mL (≈ 3.54 µM) | ≤ 0.78 µg/mL | 6.25 µg/mL (≈ 14.2 µM) | 3.12 µg/mL (≈ 7.09 µM) | > 100 µg/mL | > 100 µg/mL | 1.56 µg/mL (≈ 3.54 µM) | 3.12 µg/mL (≈ 7.09 µM) | 1.56 µg/mL (≈ 3.54 µM) | 0.78 µg/mL (≈ 1.77 µM) | 1.56 µg/mL (≈ 3.54 µM) | 1.56 µg/mL (≈ 3.54 µM) | 3.12 µg/mL (≈ 7.09 µM) | 0.78 µg/mL (≈ 1.77 µM) | 1.56 µg/mL (≈ 3.54 µM) | 3.12 µg/mL (≈ 7.09 µM) |
| O=C1Nc2c(Cl)cccc2/C1=N/NC(=S)Nc1cccc(Cl)c1 | 0.78 µg/mL (≈ 2.14 µM) | 1.56 µg/mL (≈ 4.27 µM) | ≤ 0.78 µg/mL | 3.12 µg/mL (≈ 8.54 µM) | 1.56 µg/mL (≈ 4.27 µM) | > 100 µg/mL | > 100 µg/mL | 0.78 µg/mL (≈ 2.14 µM) | 1.56 µg/mL (≈ 4.27 µM) | 1.56 µg/mL (≈ 4.27 µM) | 0.78 µg/mL (≈ 2.14 µM) | 1.56 µg/mL (≈ 4.27 µM) | 1.56 µg/mL (≈ 4.27 µM) | 1.56 µg/mL (≈ 4.27 µM) | 0.78 µg/mL (≈ 2.14 µM) | 1.56 µg/mL (≈ 4.27 µM) | 3.12 µg/mL (≈ 8.54 µM) |
| Cc1cccc2c1NC(=O)/C2=N\NC(=S)Nc1ccc(F)cc1 | 0.78 µg/mL (≈ 2.38 µM) | 1.56 µg/mL (≈ 4.75 µM) | ≤ 0.78 µg/mL | 3.12 µg/mL (≈ 9.5 µM) | 1.56 µg/mL (≈ 4.75 µM) | > 100 µg/mL | > 100 µg/mL | 1.56 µg/mL (≈ 4.75 µM) | 3.12 µg/mL (≈ 9.5 µM) | 1.56 µg/mL (≈ 4.75 µM) | 1.56 µg/mL (≈ 4.75 µM) | 1.56 µg/mL (≈ 4.75 µM) | 1.56 µg/mL (≈ 4.75 µM) | 1.56 µg/mL (≈ 4.75 µM) | 0.78 µg/mL (≈ 2.38 µM) | 1.56 µg/mL (≈ 4.75 µM) | 1.56 µg/mL (≈ 4.75 µM) |
| Cc1ccc(NC(=S)N/N=C2\C(=O)Nc3c(C)cccc32)cc1 | 1.56 µg/mL (≈ 4.81 µM) | 3.12 µg/mL (≈ 9.62 µM) | ≤ 0.78 µg/mL | 6.25 µg/mL (≈ 19.3 µM) | 3.12 µg/mL (≈ 9.62 µM) | > 100 µg/mL | > 100 µg/mL | 1.56 µg/mL (≈ 4.81 µM) | 3.12 µg/mL (≈ 9.62 µM) | 1.56 µg/mL (≈ 4.81 µM) | 1.56 µg/mL (≈ 4.81 µM) | 3.12 µg/mL (≈ 9.62 µM) | 3.12 µg/mL (≈ 9.62 µM) | 3.12 µg/mL (≈ 9.62 µM) | 1.56 µg/mL (≈ 4.81 µM) | 3.12 µg/mL (≈ 9.62 µM) | 3.12 µg/mL (≈ 9.62 µM) |
| COc1ccc(NC(=S)N/N=C2\C(=O)Nc3c(I)cccc32)cc1 | 1.56 µg/mL (≈ 3.45 µM) | > 100 µg/mL | 3.12 µg/mL (≈ 6.9 µM) | > 100 µg/mL | > 100 µg/mL | > 100 µg/mL | > 100 µg/mL | 6.25 µg/mL (≈ 13.8 µM) | 12.5 µg/mL (≈ 27.6 µM) | 6.25 µg/mL (≈ 13.8 µM) | 3.12 µg/mL (≈ 6.9 µM) | 6.25 µg/mL (≈ 13.8 µM) | 12.5 µg/mL (≈ 27.6 µM) | 6.25 µg/mL (≈ 13.8 µM) | 1.56 µg/mL (≈ 3.45 µM) | 6.25 µg/mL (≈ 13.8 µM) | 25 µg/mL (≈ 55.3 µM) |
